Reference: patent US4874760A, “4,7-dihydroisothiazolo(5,4-b)pyridine derivatives and cardiovascular treating agents containing said derivatives” (Toa Eiyo, Ltd., priority 1987, dated 1989)
Like-named read-outs stand apart in the source and are kept apart here.

Columns and labels:
[1] = tested on: KCl-induced contraction of helical blood vessel specimen (artery); assay: Test on calcium antagonizing activity (KCl-induced contraction of helical blood vessel specimen); parameters: species or system rabbit; settings: contraction height at 40 mM KCl taken as 100%, 10 minutes after test compound, 37° C., read-out: ED50 (concentration which inhibits the contraction height of the control to an extent of 50%)
Experimental: Female and male rabbits weighing 2 to 3 kg were used. They were anesthetized by intravenous injection of pentobarbital sodium, and sacrificed by bleeding from the femoral arteries. Immediately then, the artery was extracted from the chest, and a helical blood vessel specimen was prepared.

[2] = tested on: systolic blood pressure, spontaneously hypertensive rats; assay: Antihypertensive activity test; assay type: in vivo, rat (male spontaneously hypertensive); settings: oral
Source text: Variations in systolic blood pressure were periodically measured by a programmed electrosphygmomanometer-type blood pressure measuring device (NARCO, PE-300).

CCOC(=O)C1=C(C)Nc2snc(CCN3CCN(c4ccccc4)CC3)c2C1c1cccc([N+](=O)[O-])c1 (single isomer, unassigned; (+)) [Ig, (+)-ethyl 3-[2-(4-phenyl-1-piperazinyl)ethyl]-6-methyl-4-(3-nitrophenyl)-4,7-dihydroisothiazolo[5,4-b]pyridine-5-carboxylate]
IC50 ([1]; 10 min): > 300 nM

COc1ccc(CCN(C)Cc2nsc3c2C(c2cccc([N+](=O)[O-])c2)C(C(=O)OCCN(C)Cc2ccccc2)=C(C)N3)cc1OC (centres unmarked) [Ic, 2-(N-benzyl-N-methylamino)ethyl 3-[N-(2-(3,4-dimethoxyphenyl)ethyl)-N-methylaminomethyl]-6-methyl-4-(3-nitrophenyl)-4,7-dihydroisothiazolo[5,4-b]pyridine-5-carboxylate]
IC50 ([1]; Oryctolagus cuniculus, 10 min): 225 nM | Systolic blood pressure (maximum variation) ([2]; 3 mg/kg): -37 mmHg | Systolic blood pressure (maximum variation) ([2]; 10 mg/kg): -92 mmHg | Systolic blood pressure (maximum variation) ([2]; 30 mg/kg): -135 mmHg

CCOC(=O)C1=C(C)Nc2snc(CCN3CCN(c4ccccc4)CC3)c2C1c1cccc([N+](=O)[O-])c1 (centres unmarked) [Ie, ethyl 3-[2-(4-phenyl-1-piperazinyl)ethyl]-6-methyl-4-(3-nitrophenyl)-4,7-dihydroisodithiazolo[5,4-b]pyridine-5-carboxylate]
IC50 ([1]; Oryctolagus cuniculus, 10 min): 33 nM | Systolic blood pressure (maximum variation) ([2]; 1 mg/kg): -41 mmHg | Systolic blood pressure (maximum variation) ([2]; 3 mg/kg): -51 mmHg | Systolic blood pressure (maximum variation) ([2]; 10 mg/kg): -101 mmHg

CCOC(=O)C1=C(C)Nc2snc(CN(C)CCCOc3cccc(OC)c3)c2C1c1cccc([N+](=O)[O-])c1 (centres unmarked) [Ib, ethyl 3-[N-(3-(3-methoxyphenoxy)propyl)-N-methylaminomethyl]-6-methyl-4-(3-nitrophenyl)-4,7-dihydroisothiazolo[5,4-b]pyridine-5-carboxylate]
IC50 ([1]; Oryctolagus cuniculus, 10 min): 62 nM | Systolic blood pressure (maximum variation) ([2]; 3 mg/kg): -30 mmHg | Systolic blood pressure (maximum variation) ([2]; 10 mg/kg): -76 mmHg | Systolic blood pressure (maximum variation) ([2]; 30 mg/kg): -108 mmHg

CCOC(=O)C1=C(C)Nc2snc(CCN3CCN(c4ccc(F)cc4)CC3)c2C1c1cccc([N+](=O)[O-])c1 (centres unmarked) [If, ethyl 3-[2-(4-(4-fluorophenyl)-1-piperazinyl)ethyl]-6-methyl-4-(3-nitrophenyl)-4,7-dihyhdroisothiazolo[5,4-b]pyridine-5-carboxylate]
IC50 [1]: 63.8 nM | Systolic blood pressure (maximum variation) ([2]; 1 mg/kg): -47 mmHg | Systolic blood pressure (maximum variation) ([2]; 3 mg/kg): -54 mmHg | Systolic blood pressure (maximum variation) ([2]; 10 mg/kg): -102 mmHg

COC(=O)C1=C(C)NC(C)=C(C(=O)OC)C1c1ccccc1[N+](=O)[O-] [Nifedipine, reference compound]
IC50 ([1]; Oryctolagus cuniculus, 10 min): 19.6 nM | Systolic blood pressure (maximum variation) ([2]; 1 mg/kg): -29 mmHg | Systolic blood pressure (maximum variation) ([2]; 3 mg/kg): -42 mmHg | Systolic blood pressure (maximum variation) ([2]; 10 mg/kg): -71 mmHg

CCOC(=O)C1=C(C)Nc2snc(CN(C)CCc3ccc(OC)c(OC)c3)c2C1c1cccc([N+](=O)[O-])c1 (centres unmarked) [Ia, ethyl 3-[N-(2-(3,4-dimethoxyphenyl)ethyl)-N-methylaminomethyl]-6-methyl-4-(3-nitrophenyl)-4,7-dihydroisothiazolo[5,4-b]pyridine-5-carboxylate]
IC50 ([1]; Oryctolagus cuniculus, 10 min): 60 nM | Systolic blood pressure (maximum variation) ([2]; 1 mg/kg): -6 mmHg | Systolic blood pressure (maximum variation) ([2]; 3 mg/kg): -26 mmHg | Systolic blood pressure (maximum variation) ([2]; 10 mg/kg): -82 mmHg | Systolic blood pressure (maximum variation) ([2]; 30 mg/kg): -119 mmHg

CC1=C(C(=O)OCCN(C)Cc2ccccc2)C(c2cccc([N+](=O)[O-])c2)c2c(CN3CCN(c4ccc(F)cc4)CC3)nsc2N1 (centres unmarked) [Id, 2-(N-benzyl-N-methylamino)ethyl 3-[4-(4-fluorophenyl)-1-piperazinylmethyl]-6-methyl-4-(3-nitrophenyl)-4,7-dihydroisothiazolo[5,4-b]pyridine-5-carboxylate]
IC50 ([1]; Oryctolagus cuniculus, 10 min): > 300 nM | Systolic blood pressure (maximum variation) ([2]; 1 mg/kg): -30 mmHg | Systolic blood pressure (maximum variation) ([2]; 3 mg/kg): -65 mmHg | Systolic blood pressure (maximum variation) ([2]; 10 mg/kg): -132 mmHg | Systolic blood pressure (maximum variation) ([2]; 30 mg/kg): -142 mmHg

CCOC(=O)C1=C(C)Nc2snc(CCN3CCN(c4ccccc4)CC3)c2C1c1cccc([N+](=O)[O-])c1 (single isomer, unassigned; (-)) [Ih, (-)-ethyl 3-[2-(4-phenyl-1-piperazinyl)ethyl]-6-methyl-4-(3-nitrophenyl)-4,7-dihydroisothiazolo[5,4-b]pyridine-5-carboxylate]
IC50 ([1]; 10 min): 25 nM | Systolic blood pressure (maximum variation) ([2]; 1 mg/kg): -36 mmHg | Systolic blood pressure (maximum variation) ([2]; 3 mg/kg): -93 mmHg | Systolic blood pressure (maximum variation) ([2]; 10 mg/kg): -137 mmHg
